According to patent US5780498A, “Endothelin receptor antagonists” (Ciba-Geigy Japan Limited, priority 1993, dated 1998):

Key:
ETA receptor = target: T1, ETA receptor (Sus scrofa, UniProt Q29010); experiment: Endothelin (ET) receptor binding assay, ETA ([125I]ET-1 in the presence of 1 nM nonlabeled ET-3, porcine lung plasma membrane); settings: for inhibition at 10 µM: 10^-5 M of the test compound, specific ETA binding; for Ki: from inhibition curves for the binding of [125I]ETs
T1 construct: The plasma membrane of porcine lung; from tissue; host or cells: porcine lung plasma membrane
T1 sequence (Q29010 21-427): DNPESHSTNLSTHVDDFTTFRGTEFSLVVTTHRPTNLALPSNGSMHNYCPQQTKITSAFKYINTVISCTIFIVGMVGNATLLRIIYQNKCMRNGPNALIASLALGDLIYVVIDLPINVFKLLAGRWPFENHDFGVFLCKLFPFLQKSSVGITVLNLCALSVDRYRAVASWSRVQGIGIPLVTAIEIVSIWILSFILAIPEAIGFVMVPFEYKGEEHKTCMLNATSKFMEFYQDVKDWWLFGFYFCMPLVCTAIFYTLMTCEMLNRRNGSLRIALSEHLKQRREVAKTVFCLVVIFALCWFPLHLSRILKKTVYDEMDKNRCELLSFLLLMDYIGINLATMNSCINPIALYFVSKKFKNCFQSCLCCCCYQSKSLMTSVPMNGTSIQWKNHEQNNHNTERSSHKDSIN
Procedure: (§1) Nonspecific binding is defined as membrane-associated radioactivity in the presence of saturating concentrations of ETs (100 nM). Nonspecific binding is subtracted from the total binding and the difference is defined as specific binding.

ETB receptor = target: T2, ETB receptor (Sus scrofa, UniProt P35463); experiment: Endothelin (ET) receptor binding assay, ETB ([125I]ET-3 alone, porcine lung plasma membrane); settings: for inhibition at 0.1 µM: 10^-7 M of the test compound, specific ETB binding; for Ki: from inhibition curves for the binding of [125I]ETs
T2 construct: The plasma membrane of porcine lung; from tissue; host or cells: porcine lung plasma membrane
T2 sequence (P35463 27-443): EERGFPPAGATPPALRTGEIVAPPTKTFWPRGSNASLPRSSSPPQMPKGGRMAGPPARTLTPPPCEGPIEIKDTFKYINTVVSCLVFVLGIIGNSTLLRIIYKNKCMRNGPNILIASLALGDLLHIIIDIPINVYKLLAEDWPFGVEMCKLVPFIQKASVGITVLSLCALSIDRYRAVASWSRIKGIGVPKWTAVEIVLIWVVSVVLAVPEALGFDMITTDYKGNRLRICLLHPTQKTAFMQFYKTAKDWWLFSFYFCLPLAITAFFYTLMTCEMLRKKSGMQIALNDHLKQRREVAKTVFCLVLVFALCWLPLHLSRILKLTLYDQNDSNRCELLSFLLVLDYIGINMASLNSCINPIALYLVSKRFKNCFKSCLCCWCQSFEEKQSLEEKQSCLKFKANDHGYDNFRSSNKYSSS
Procedure: as §1

guinea pig trachea = target: T3, guinea pig trachea (Cavia porcellus, UniProt H0VTF3); experiment: Contraction of guinea pig trachea (inhibition of ET-3 induced contraction); settings: ET-3 contraction; Krebs-Henseleit solution; 60 mM KCl reference standard; read-out: pA2 (converted)
T3 construct: The trachea which is isolated from male Hartley guinea pigs; from tissue; host or cells: guinea pig (Hartley) tracheal rings, epithelium removed
T3 sequence (H0VTF3 27-415): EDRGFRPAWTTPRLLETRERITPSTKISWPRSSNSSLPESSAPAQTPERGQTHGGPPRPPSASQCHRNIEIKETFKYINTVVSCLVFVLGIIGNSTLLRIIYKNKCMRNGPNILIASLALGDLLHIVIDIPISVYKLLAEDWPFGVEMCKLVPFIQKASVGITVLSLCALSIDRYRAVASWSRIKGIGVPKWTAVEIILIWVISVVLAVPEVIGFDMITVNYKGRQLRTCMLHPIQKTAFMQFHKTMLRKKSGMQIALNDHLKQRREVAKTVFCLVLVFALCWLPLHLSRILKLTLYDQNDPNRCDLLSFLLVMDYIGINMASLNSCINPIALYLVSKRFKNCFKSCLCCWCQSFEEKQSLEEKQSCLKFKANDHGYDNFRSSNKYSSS
Procedure: Contraction assays are performed basically according to the published method (M. Takai et al. Biochem. Biophys. Res. Commun. 184, 953-959, 1992). The trachea which is isolated from male Hartley guinea pigs weighing 350-500 g, is cut into rings of approximately 2 mm length after removal of the adherent fat and connective tissues. The epithelium is removed mechanically from the rings. The preparations are placed in organ baths containing a Krebs-Henseleit or Tyrode solution at 37° C., pH 7.4 bubbled with 95% O2 and 5% CO2. Tension is measured isometrically via a force-displacement transducer (Nikhon Kohden, Tokyo, TB-612T) under an initial tension of 1 g. Concentration-response curves for ET-3 are obtained by its cumulative application. Inhibitory activities of given compounds are investigated by the addition of their DMSO solutions into the baths 10 to 40 min before the addition of ET-3. These activities are evaluated numerically by pA2 values which are negative logarithms of compound concentrations inducing a shift of the ET-3 concentration-effective curves toward the 2-fold higher concentration range of ET-3. Contraction produced by 60 mM KCl or 10 μM carbachol is used as a reference standard.

| Compound | inhibition at 10 µM (ETA receptor) [%] | inhibition at 0.1 µM (ETB receptor) [%] | Kb (guinea pig trachea) [nM] | Ki (ETA receptor) [nM] | Ki (ETB receptor) [nM] |
| --- | --- | --- | --- | --- | --- |
| Cc1cc(C)cc(C(=O)N(C)[C@H](Cc2ccc(-c3ccccc3)cc2)C(=O)N(C)[C@@H](Cc2c[nH]c3ccccc23)C(=O)O)c1 [Example 12, N-(3,5-Dimethylbenzoyl)-N-methyl-(D)-(4-phenylphenyl)alanyl-N-methyl-(L)-tryptophan] | 36 | 91 | – | – | – |
| Cc1cc(C)cc(C(=O)N(C)[C@H](Cc2ccccc2)C(=O)N[C@@H](Cc2c[nH]c3ccccc23)C(=O)O)c1 [Example 1, N-(3,5-Dimethylbenzoyl)-N-methyl-(D)-phenylalanyl-(L)-tryptophan] | 37 | 55 | 501 | – | – |
| Cc1cc(C)cc(C(=O)N(C)[C@H](Cc2ccc(-c3cccs3)cc2)C(=O)N[C@@H](Cc2c[nH]c3ccccc23)C(=O)O)c1 [Example 93, N-(3,5-dimethylbenzoyl)-N-methyl-(D)-3-[4-(2-thienyl)phenyl]alanyl-(L)-tryptophan] | – | – | – | 87 | 0.6 |
| Cc1cc(C)cc(C(=O)N(C)[C@H](Cc2ccc(-c3ccno3)cc2)C(=O)N[C@@H](Cc2c[nH]c3ccccc23)C(=O)O)c1 [Example 95, N-(3,5-dimethylbenzoyl)-N-methyl-(D)-3-[4-(5-isoxazolyl)phenyl]alanyl-(L)-tryptophan] | 98 | 98 | – | 45 | 0.21 |
| Cc1cc(C)cc(C(=O)N(C)C(C(=O)N[C@@H](Cc2c[nH]c3ccccc23)C(=O)O)C(c2ccccc2)c2ccccc2)c1 (some centres unmarked) [Example 57, N-(3,5-dimethylbenzoyl)-N-methyl-(D,L)-3-(diphenyl)alanyl-(L)-tryptophan] | 34 | 95 | – | – | – |
| Cc1cc(C)cc(C(=O)N(C)[C@H](Cc2ccc(-c3ccccc3)cc2)C(=O)N[C@@H](Cc2c[nH]c3ccccc23)c2nn[nH]n2)c1 [Example 4, 5-[N-(3,5-dimethylbenzoyl)-N-methyl-(D)-(4-phenylphenyl)alanyl-(L)-tryptophanyl]-1H-tetrazole] | 74 | 93 | – | – | – |
| Cc1cc(C)cc(C(=O)N(C)[C@H](Cc2ccc(-c3ccccc3)cc2)C(=O)CC(Cc2c[nH]c3ccccc23)C(=O)O)c1 (some centres unmarked) [Example 84] | 46 | 70 | – | – | – |
| Cc1cc(C)cc(C(=O)N(C)[C@H](Cc2ccc(-c3ccsc3)cc2)C(=O)N[C@@H](Cc2c[nH]c3ccccc23)C(=O)O)c1 [Example 91, N-(3,5-dimethylbenzoyl)-N-methyl-(D)-3-[4-(3-thienyl)phenyl]alanyl-(L)-tryptophan] | 100 | 100 | – | 54 | 0.23 |
| COc1ccc(C[C@H](C(=O)N[C@@H](Cc2c[nH]c3ccccc23)C(=O)O)N(C)C(=O)c2cc(C)cc(C)c2)cc1 [Example 65, N-(3,5-dimethylbenzoyl)-N-methyl-O-methyl-(D)-tyrosyl-(L)-tryptophan] | 47 | 59 | – | – | – |
| Cc1cc(C)cc(C(=O)N(C)[C@H](Cc2ccc(-c3ccccc3)cc2)C(=O)NC(Cc2csc3ccccc23)C(=O)O)c1 (some centres unmarked) [Example 7] | 77 | 87 | – | – | – |
| Cc1cc(C)cc(C(=O)N(C)[C@H](Cc2ccc(-c3ccccc3)cc2)C(=O)N[C@@H](Cc2c[nH]c3ccccc23)C(=O)O)c1 [Example 55, N-(3,5-Dimethylbenzoyl)-N-methyl-(D)-(4-phenylphenyl)alanyl-(L)-tryptophan] | 94 | 100 | – | 440 | 1 |
